Experimental data from patent US12398154B2, “Azaquinazoline pan-KRas inhibitors” (Mirati Therapeutics, Inc., priority 2020, dated 2025).

Assays:
[1] = test system: phospho-ERK in AsPC-1 (G12D) cells; test: Inhibition of KRas-mediated phosphorylation of ERK (in-cell western); type: cell-based; settings: Homo sapiens, ASPC1, 3 h, 3 hours compound, phospho-ERK normalized to GAPDH
Procedure: (§1) Diluted compounds were then added in a final concentration of 0.5% DMSO. After 3 hours, 50 μL of 4.0% formaldehyde was added and the plates incubated at room temperature for 20 minutes. The plates were then dumped and permeabilized with 150 μL of ice cold 100% methanol for 10 minutes.
(§2) The amount of phospho-ERK was determined using an antibody specific for the phosphorylated form of ERK and compared to the amount of GAPDH. […] The plates were incubated overnight at 4° C. The plates were washed 3× with 150 uL PBS+0.1% Tween 20.
(§3) The plates were washed 3× with 150 uL PBS+0.1% Tween 20. Plates were imaged dry on a Li-COR Odyssey CLX plate reader.
(§4) The phospho-ERK (Thr202/Tyr204) signal was normalized to the GAPDH signal for each well and percent of DMSO control values were calculated. IC50 values were generated using a 4-parameter fit of the dose response curve.

KRas G12D = KRas G12D (Homo sapiens, UniProt P01116, G12D); test: biochemical;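 note: TR-FRET displacement binding assay on KRas, read after a one-hour incubation at room temperature, IC50 fitted from percent-of-control values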
KRas G12D, sequence (P01116 1-169 isoform P01116-2 G12D): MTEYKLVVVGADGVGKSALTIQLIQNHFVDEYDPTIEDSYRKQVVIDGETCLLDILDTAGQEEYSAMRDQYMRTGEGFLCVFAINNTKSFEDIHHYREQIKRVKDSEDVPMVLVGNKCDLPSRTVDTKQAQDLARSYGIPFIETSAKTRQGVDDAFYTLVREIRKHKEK
Procedure: (§5) The ability of a compound to bind to KRas was measured using a TR-FRET displacement assay. […] After a 60-minute incubation at room temperature, the reaction was measured using a BMG LABTECH CLARIO star Plus via TR-FRET. […] The POC values were fit to a 4-parameter IC50 equation and the IC50 value reported.

KRas G12V = KRas G12V (Homo sapiens, UniProt P01116, G12V); test: biochemical;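 note: KRas binding measured by TR-FRET displacement at room temperature, IC50 fitted from percent of control values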
KRas G12V, sequence (P01116 1-169 isoform P01116-2 G12V): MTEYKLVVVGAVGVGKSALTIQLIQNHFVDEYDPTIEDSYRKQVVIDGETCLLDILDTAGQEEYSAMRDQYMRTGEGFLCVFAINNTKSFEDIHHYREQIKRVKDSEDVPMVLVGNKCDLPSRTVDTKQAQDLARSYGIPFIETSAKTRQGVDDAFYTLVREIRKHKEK
Procedure: as §5

KRas G12R = KRas G12R (Homo sapiens, UniProt P01116, G12R); test: biochemical;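 note: TR-FRET displacement assay of compound binding to KRas, read after one hour at room temperature, potency from a four-parameter fit of percent-of-control values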
KRas G12R, sequence (P01116 1-169 isoform P01116-2 G12R): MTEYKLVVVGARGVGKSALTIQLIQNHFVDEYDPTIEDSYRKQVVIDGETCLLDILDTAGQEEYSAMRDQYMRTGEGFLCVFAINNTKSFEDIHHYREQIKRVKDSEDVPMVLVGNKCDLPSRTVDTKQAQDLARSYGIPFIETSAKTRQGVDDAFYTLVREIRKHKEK
Procedure: as §5

pERK in MKN1 cells = test: Inhibition of KRas phosphorylation of ERK (Cisbio HTRF pERK assay); settings: Homo sapiens, MKN-1, 3 h, read-out: Inhibition (HTRF IC50) of KRas-mediated Phosphorylation of ERK, MKN1
pERK in PSN1 cells = test: as above; settings: Homo sapiens, PSN1, 3 h, read-out: Inhibition (HTRF IC50) of KRas-mediated Phosphorylation of ERK, PSN1
[2] = test system: phospho-ERK in NCI-H460 (Q61H) cells; test: Inhibition of KRas-mediated phosphorylation of ERK (in-cell western); type: cell-based; settings: Homo sapiens, NCI-H460, 3 h, 3 hours compound, phospho-ERK normalized to GAPDH
Procedure: as §1, §2, §3, §4

[3] = test system: phospho-ERK in NCI-H727 (G12V) cells; test: as above; type: cell-based; settings: Homo sapiens, NCI-H727, 3 h, 3 hours compound, phospho-ERK normalized to GAPDH
Procedure: as §1, §2, §3, §4

KRas G12A = KRas G12A (Homo sapiens, UniProt P01116, G12A); test: biochemical;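 note: binding to KRas measured by TR-FRET displacement after one hour at room temperature, IC50 from a four-parameter fit of percent-of-control values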
KRas G12A, sequence (P01116 1-169 isoform P01116-2 G12A): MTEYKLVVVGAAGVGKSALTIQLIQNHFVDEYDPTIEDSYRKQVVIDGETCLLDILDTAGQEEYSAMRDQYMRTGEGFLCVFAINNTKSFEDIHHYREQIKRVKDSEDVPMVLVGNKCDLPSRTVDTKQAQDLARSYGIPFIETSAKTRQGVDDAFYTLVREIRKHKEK
Procedure: as §5

KRas G12S = KRas G12S (Homo sapiens, UniProt P01116, G12S); test: biochemical;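 note: TR-FRET displacement binding to KRas, read after one hour incubation at room temperature, IC50 from four-parameter fit of percent of control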
KRas G12S, sequence (P01116 1-169 isoform P01116-2 G12S): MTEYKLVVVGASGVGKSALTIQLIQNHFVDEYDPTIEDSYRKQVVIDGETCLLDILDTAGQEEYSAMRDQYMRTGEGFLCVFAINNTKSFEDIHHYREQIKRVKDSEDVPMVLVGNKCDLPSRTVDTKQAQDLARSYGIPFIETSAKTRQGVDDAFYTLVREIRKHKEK
Procedure: as §5

KRas G12C = KRas G12C (Homo sapiens, UniProt P01116, G12C); test: biochemical;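 note: binding to KRas assessed by TR-FRET displacement after one hour incubation at room temperature, potency fitted from percent-of-control values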
KRas G12C, sequence (P01116 1-169 isoform P01116-2 G12C): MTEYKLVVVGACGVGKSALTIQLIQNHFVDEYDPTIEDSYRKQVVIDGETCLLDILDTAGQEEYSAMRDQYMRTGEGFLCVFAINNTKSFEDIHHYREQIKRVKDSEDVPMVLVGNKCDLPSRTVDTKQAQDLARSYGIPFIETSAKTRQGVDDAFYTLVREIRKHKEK
Procedure: as §5

KRas WT = KRas WT (Homo sapiens, UniProt P01116); test: biochemical;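 note: binding to KRas read as TR-FRET displacement after a one-hour room-temperature incubation, IC50 derived from percent-of-control values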
KRas WT, sequence (P01116 1-169 isoform P01116-2): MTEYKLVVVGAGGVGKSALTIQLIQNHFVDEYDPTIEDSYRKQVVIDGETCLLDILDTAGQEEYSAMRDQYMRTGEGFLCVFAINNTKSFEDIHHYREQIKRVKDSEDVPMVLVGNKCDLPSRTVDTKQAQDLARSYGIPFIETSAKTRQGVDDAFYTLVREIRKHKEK
Procedure: as §5

pERK in ASPC1 cells = test: Inhibition of KRas phosphorylation of ERK (Cisbio HTRF pERK assay); settings: Homo sapiens, ASPC1, read-out: Inhibition (HTRF IC50) of KRas-mediated Phosphorylation of ERK, AsPC-1
pERK in H727 cells = test: as above; settings: Homo sapiens, NCI-H727, read-out: Inhibition (HTRF IC50) of KRas-mediated Phosphorylation of ERK, H727
pERK in H460 cells = test: as above; settings: Homo sapiens, NCI-H460, read-out: Inhibition (HTRF IC50) of KRas-mediated Phosphorylation of ERK, H460
Procedure: To harvest cells from flask using 0.05% Trypsin/EDTA solution. Add 10 mL of media to stop trypsinizing. Pipette the cells into a conical bottom 50 mL centrifuge tube and centrifuge 5 min×1000 rpm. • 2. Re-suspend the cell pellet in media, take a cell count, and then adjust the cell density using fresh media. • 3. Seed 6,000 cells into cell culture plate with 50 μL media. […] Incubate cell plate overnight in a 37° C., 5% CO2 incubator. • Compound titrations • 1. Use Tecan to complete the compound addition. Compounds start from 10 uM top, 3-fold dilution, and 10 doses. The final DMSO concentration is 0.8%. Dispensed 0.2 uM Trametinib as Min control. • 2. Incubate cell plate for 3 hrs in the incubator. • Detection with cisbio pERK HTRF kit • 1. […] At the end of the compound treatment, flick-off the media. • 3. Add 35 μL of lysis buffer per well using a Multidrop Combi. Then place on a plate agitator shaking at 300 rpm at 4° C. for 40 mins. • 4. Make up the HTRF antibody buffer. For each assay plate, mix 50 μL of d2-conjugate antibody with 950 μL of detection buffer. Similarly, mix 50 μL of Cryptate antibody with 950 μL of detection buffer. Then mix the two diluted antibodies together. • 5. Dispense 3.4 μL the antibody buffer to wells of an empty assay plate. Seal the plate and centrifuge plate 30 sec×1000 rpm. • 6. At the end of the 4° C. lysis, centrifuge the lysate plates 3 mins×1500 rpm. • 7. Use the Bravo to transfer 13.6 μL of lysate from cell culture plate to assay plate.
Then incubate assay plate for 2 hrs at room temperature. […] At the end of incubation, read plate on the Envision after centrifuging plate 30 sec× • 1000 rpm.

pERK in HCT116 cells = test: as above; settings: Homo sapiens, HCT-116, read-out: Inhibition (HTRF IC50) of KRas-mediated Phosphorylation of ERK, HCT116

| Compound | IC50 [1] | IC50 (KRas G12D) | IC50 (KRas G12V) | IC50 (KRas G12R) | IC50 (pERK in MKN1 cells) | IC50 (pERK in PSN1 cells) | IC50 [2] | IC50 [3] | IC50 (KRas G12A) | IC50 (KRas G12S) | IC50 (KRas G12C) | IC50 (KRas WT) | IC50 (pERK in ASPC1 cells) | IC50 (pERK in H727 cells) | IC50 (pERK in H460 cells) | IC50 (pERK in HCT116 cells) |
| --- | --- | --- | --- | --- | --- | --- | --- | --- | --- | --- | --- | --- | --- | --- | --- | --- |
| C#Cc1c(F)ccc2cc(O)cc(-c3ncc4c(N5CCC[C@](C)(O)C5)nc(OC[C@@]56CCCN5C[C@H](F)C6)nc4c3F)c12 [Example 10] | 297 nM | ≤ 2 nM | ≤ 2 nM | 3 nM | 13 nM | 3340 nM | – | – | – | – | – | – | – | – | – | – |
| CCc1c(F)ccc2cc(O)cc(-c3ncc4c(N5CCC[C@@](C)(O)C5)nc(OC[C@@H]5C[C@@H](OC(=O)NC)CN5C)nc4c3F)c12 [Example 12, (3R,5S)-5-(((7-(8-ethyl-7-fluoro-3-hydroxy)naphthalen-1-yl)-8-fluoro-4-((R)-3-hydroxy-3-methylpiperidin-1-yl)pyrido[4,3-d]pyrimidin-2-yl)oxy)methyl)-1-methylpyrrolidin-3-yl methylcarbamate] | 497 nM | 3 nM | 3 nM | 4 nM | 26 nM | ≥ 10000 nM | – | – | – | – | – | – | – | – | – | – |
| CCc1c(F)ccc2cc(O)cc(-c3ncc4c(N5CC[C@H](F)[C@@H](O)C5)nc(OC[C@@]56CCCN5C[C@H](F)C6)nc4c3F)c12 [Example 179] | 785 nM | – | – | – | 10 nM | 6960 nM | 274 nM | 675 nM | – | – | – | – | – | – | – | – |
| CCc1c(F)ccc2cc(O)cc(-c3ncc4c(N5CCC[C@@]6(CNC(=O)C6)C5)nc(OC[C@]56CCCN5C[C@@H](O)C6)nc4c3F)c12 [Example 305, (R)-7-(7-(8-ethyl-7-fluoro-3-hydroxynaphthalen-1-yl)-8-fluoro-2-(((2S,7aR)-2-hydroxytetrahydro-1H-pyrrolizin-7a(5H)-yl)methoxy)pyrido[4,3-d]pyrimidin-4-yl)-2,7-diazaspiro[4.5]decan-3-one] | ≥ 10000 nM | 25 nM | 6 nM | 14 nM | – | – | ≥ 10000 nM | ≥ 10000 nM | – | – | – | – | – | – | – | – |
| CCc1c(F)ccc2cc(O)cc(-c3ncc4c(NC5CN(C(N)=O)C5)nc(OC[C@@]56CCCN5C[C@H](F)C6)nc4c3F)c12 [Example 310, 3-((7-(8-ethyl-7-fluoro-3-hydroxynaphthalen-1-yl)-8-fluoro-2-(((2R,7aS)-2-fluorohexahydro-1H-pyrrolizin-7a-yl)methoxy)pyrido[4,3-d]pyrimidin-4-yl)amino)azetidine-1-carboxamide] | ≥ 10000 nM | 8 nM | ≤ 2 nM | ≤ 2 nM | – | – | 3790 nM | 3370 nM | – | – | – | – | – | – | – | – |
| CCc1c(F)ccc2cc(O)cc(-c3ncc4c(N5CCCC6(CC(=O)NC6=O)C5)nc(OC[C@@]56CCCN5C[C@H](F)C6)nc4c3F)c12 (stereo partly drawn) [Example 318, 7-(7-(8-ethyl-7-fluoro-3-hydroxynaphthalen-1-yl)-8-fluoro-2-(((2R,7aS)-2-fluorohexahydro-1H-pyrrolizin-7a-yl)methoxy)pyrido[4,3-d]pyrimidin-4-yl)-2,7-diazaspiro[4.5]decane-1,3-dione] | – | ≤ 2 nM | ≤ 2 nM | ≤ 2 nM | 13 nM | 877 nM | – | – | ≤ 2 nM | ≤ 2 nM | ≤ 2 nM | ≤ 2 nM | 133 nM | 69 nM | 65 nM | 60 nM |
| CCc1c(F)ccc2cc(O)cc(-c3ncc4c(N5C[C@@H]6C[C@H](C5)[C@H](O)C6)nc(OCC5(CN6CCCC6)CC5)nc4c3F)c12 [Example 320, (1R,5R,6R)-3-(7-(8-ethyl-7-fluoro-3-hydroxynaphthalen-1-yl)-8-fluoro-2-((1-(pyrrolidin-1-ylmethyl)cyclopropyl)methoxy)pyrido[4,3-d]pyrimidin-4-yl)-3-azabicyclo[3,2,1]octan-6-ol] | – | 3 nM | ≤ 2 nM | 3 nM | 10 nM | 5180 nM | – | – | ≤ 2 nM | ≤ 2 nM | ≤ 2 nM | ≤ 2 nM | 115 nM | 82 nM | 100 nM | 65 nM |
| O=S1(=O)NCC2(CCCN(c3nc(OC[C@@]45CCCN4C[C@H](F)C5)nc4c(F)c(-c5cc(O)cc6ccc(F)c(Cl)c56)ncc34)C2)N1 (stereo partly drawn) [Example 417, 7-(7-(8-chloro-7-fluoro-3-hydroxynaphthalen-1-yl)-8-fluoro-2-(((2R,7aS)-2-fluorohexahydro-1H-pyrrolizin-7a-yl)methoxy)pyrido[4,3-d]pyrimidin-4-yl)-2-thia-1,3,7-triazaspiro[4.5]decan 2,2-dioxide] | – | ≤ 2 nM | ≤ 2 nM | ≤ 2 nM | 20 nM | 110 nM | – | – | – | – | ≤ 2 nM | ≤ 2 nM | 182 nM | 57 nM | 63 nM | 79 nM |
| OCC1COCCN(c2nc(OCC34CCCN3CCC4)nc3c(F)c(-c4cc(O)cc5ccc(F)c(F)c45)ncc23)C1 (centres unmarked) [Example 457, 5,6-difluoro-4-(8-fluoro-2-((hexahydro-1H-pyrrolizin-7a-yl)methoxy)-4-(6-(hydroxymethyl)-1,4-oxazepan-4-yl)pyrido[4,3-d]pyrimidin-7-yl)naphthalen-2-ol] | – | 31 nM | 6 nM | 10 nM | – | – | 9410 nM | 3950 nM | – | – | – | – | – | – | – | – |
| CCc1cccc2cc3[nH]ncc3c(-c3ncc4c(N5CCC[C@@](C)(O)C5)nc(OC[C@@]56CCCN5C[C@H](F)C6)nc4c3F)c12 [Example 473, (3R)-1-(7-(5-ethyl-1H-benzo[f]indazol-4-yl)-8-fluoro-2-(((2R,7aS)-2-fluorohexahydro-1H-pyrrolizin-7a-yl)methoxy)pyrido[4,3-d]pyrimidin-4-yl)-3-methylpiperidin-3-ol] | – | 11 nM | 8 nM | 14 nM | – | – | 325 nM | 320 nM | 8 nM | 9 nM | 9 nM | 10 nM | – | – | – | – |
| CCc1c(F)ccc2cc(O)cc(-c3ncc4c(NCC5CNS(=O)(=O)N5)nc(OC[C@@]56CCCN5C[C@H](F)C6)nc4c3F)c12 (stereo partly drawn) [Example 494, 3-(((7-(8-ethyl-7-fluoro-3-hydroxynaphthalen-1-yl)-8-fluoro-2-(((2R,7aS)-2-fluorohexahydro-1H-pyrrolizin-7a-yl)methoxy)pyrido[4,3-d]pyrimidin-4-yl)amino)methyl)-1,2,5-thiadiazolidine 1,1-dioxide] | – | 3 nM | ≤ 2 nM | ≤ 2 nM | 135 nM | ≥ 10000 nM | – | – | – | – | – | – | 354 nM | 795 nM | 982 nM | 2170 nM |
| CCc1c(F)ccc2cc(O)cc(-c3ncc4c(N5CCCn6nc(C(=O)NCCO)cc6C5)nc(OC[C@@]56CCCN5C[C@H](F)C6)nc4c3F)c12 [Example 506, 5-(7-(8-ethyl-7-fluoro-3-hydroxynaphthalen-1-yl)-8-fluoro-2-(((2R,7aS)-2-fluorotetrahydro-1H-pyrrolizin-7a(5H)-yl)methoxy)pyrido[4,3-d]pyrimidin-4-yl)-N-(2-hydroxyethyl)-5,6,7,8-tetrahydro-4H-pyrazolo[1,5-a][1,4]diazepine-2-carboxamide] | – | ≤ 2 nM | ≤ 2 nM | ≤ 2 nM | 703 nM | ≥ 10000 nM | – | – | – | – | – | – | 302 nM | 2220 nM | 8910 nM | ≥ 10000 nM |
